Experiments:
OSBP = target: T1, OSBP (Homo sapiens, UniProt P22059); test: Fluorescence polarisation (FP) competition with NBD-cholesterol, OSBP; format: binding; settings: single dose; for OSBP (FP) inhibition: Dose = 10 µM
T1 construct: OSBP(377-807); host or cells: E. coli OverExpress C41
T1 sequence (P22059 377-807): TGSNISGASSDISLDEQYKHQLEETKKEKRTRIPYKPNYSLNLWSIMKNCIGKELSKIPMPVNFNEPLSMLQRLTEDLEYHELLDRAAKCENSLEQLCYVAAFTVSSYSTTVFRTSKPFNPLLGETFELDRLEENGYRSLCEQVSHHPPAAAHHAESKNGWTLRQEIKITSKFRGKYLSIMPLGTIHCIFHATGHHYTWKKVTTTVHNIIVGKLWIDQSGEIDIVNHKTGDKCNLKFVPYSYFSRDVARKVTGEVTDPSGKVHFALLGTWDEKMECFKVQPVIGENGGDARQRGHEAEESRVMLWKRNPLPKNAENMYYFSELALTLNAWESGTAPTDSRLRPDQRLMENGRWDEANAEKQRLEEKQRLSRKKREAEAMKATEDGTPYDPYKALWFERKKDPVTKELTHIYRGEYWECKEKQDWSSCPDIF
From the text: (§1) Protein expression constructs
(§2) Human ASTER domains of Aster-A(359-547), -B(364-552) and -C(318-504) were subcloned into a pGEX-6p-2rbs vector, thus introducing the cloning artifact ‘GPLGS’.3 The pGEX-6P-1-GST-OSBP(377- […]
(§3) a gift from James H. Hurley (University of California).4 The pHIS_2His6_Thrombin_STARD4(2-205;C75S) plasmid was a gift from Young Jun Im (Chonnam National University).5 STARD5A was a gift from Nicola Burgess-Brown (Addgene plasmid #42392; http://n2t.net/addgene:42392; […]
(§4) Protein expression and purification […]
(§5) vectors including an N-terminal PreScission-cleavable glutathione S-transferase (GST)-tag were expressed in Escherichia coli (E. coli) OverExpress C41 in Terrific Broth (TB) medium for 16 h at 18 °C after the induction with 0.1 mM isopropyl β-D-1-thiogalactopyranoside (IPTG). Cells were harvested at 3500 × g for 15 minutes and lysed by sonication in buffer containing 50 mM HEPES pH 7.5, 300 mM NaCl, 10 %v/v glycerol, 5 mM dithiothreitol (DTT), 0.1 %v/v Triton X-100 and protease inhibitor mix HP plus (Serva). The lysate was purified by affinity chromatography on a GSTrap FF column (Cytiva) using an ÄKTA Start (Cytiva) in buffer containing 50 mM HEPES pH 7.5, 300 mM NaCl, 10 %v/v glycerol, 5 mM DTT and 0.01 %v/v Triton X-100. The GST-tag was cleaved overnight on the column at 4 °C. The Aster sterol binding domains were further purified by size-exclusion chromatography (SEC) on a HiLoad 16/600 Superdex 75 pg (Cytiva) in buffer containing 20 mM HEPES pH 7.5, 300 mM NaCl, 10 %v/v […]
(§6) STARD5(6-213) harboring an N-terminal His6-Tag were expressed in E. coli BL21(DE3) in Luria-Bertani Broth (LB) medium for approximately 16 h at 18 °C after induction with 0.15 mM IPTG. Cells were harvested at 3500 × g for 15 minutes and lysed by sonication in buffer containing 50 mM HEPES pH 7.5, 150 mM NaCl, 5 %v/v glycerol, 5 mM DTT, 0.1 %v/v Triton X -100 and ethylenediaminetetraacetic acid (EDTA)-free protease inhibitor cocktail (Sigma-Aldrich). The cleared lysate was purified by affinity chromatography on a Ni-NTA Superflow Cartridge (Qiagen) using an ÄKTA Start (Cytiva) in buffer containing 50 mM HEPES pH 7.5, 150 mM NaCl, 5 %v/v glycerol, 5 mM DTT. START domains were eluted by using elution buffer containing 50 mM HEPES pH 7.5, 150 mM NaCl, 5 %v/v glycerol, 5 mM DTT and 500 mM imidazole. Proteins were further purified by SEC on a HiLoad 16/600 Superdex 75 pg (Cytiva) in buffer containing 20 mM HEPES pH 7.5, 150 mM NaCl, 5 %v/v glycerol and 2 mM DTT.
(§7) The ORP domain of human OSBP(377-807) in the pGEX-6p-1 vector with an N-terminal PreScission-cleavable GST-tag was expressed in E. coli OverExpress C41 in LB medium for 16 h at 18 °C after induction with 0.1 mM IPTG. Cells were harvested at 3500 × g for 15 minutes and lysed by sonication in buffer containing 20 mM HEPES pH 7.5, 300 mM NaCl, 10 %v/v glycerol, 5 mM DTT, 0.1 %v/v Triton X-100 and EDTA-free protease inhibitor cocktail (Sigma-Aldrich). The cleared lysate was purified by affinity chromatography on a GSTrap HF column (Cytiva) using an ÄKTA Start (Cytiva) in buffer containing 20 mM HEPES pH 7.5, 300 mM NaCl, 10 %v/v glycerol, 5 mM DTT. OSBP(377 -807) was eluted by using elution buffer containing 20 mM HEPES pH 7.5, 300 mM NaCl, 10 %v/v glycerol, 5 mM DTT and 10 mM reduced glutathione. Proteins were further purified by SEC on a HiLoad 16/600 Superdex 75 pg (Cytiva) using an ÄKTA Explorer (Cytiva) in buffer containing 20 mM HEPES pH 7.5, 150 mM NaCl, 10 %v/v glycerol and 2 mM DTT.
(§8) The ORP domains of human ORP1(534-950) in pET24b(+) and ORP2(49-480) in the pET24b(+) vector including an N-terminal His6-Tag were expressed in E. coli BL21(DE3) in TB medium for approximately 16 h at 18 °C after induction with 0.1 mM IPTG. Cells were collected at 3500 × g for 15 minutes and lysed by sonification in buffer containing 10 mM Tris-HCl pH 8, 300 mM NaCl, 5 % glycerol, 2 mM DTT, 0.1 % Triton X-100 and EDTA-free protease inhibitor cocktail (Sigma-Aldrich). The cleared […]

STARD5 = target: T2, STARD5 (Homo sapiens, UniProt Q9NSY2); test: Differential scanning fluorimetry (DSF), STARD5; format: binding; settings: for STARD5 (DSF) ΔTm / ΔTm at 10 µM: single dose, Dose = 10 µM; for Kd: apparent Kd, mean of three experiments run in technical duplicates, read-out: STARD5 Kd,app (DSF); for STARD5 (DSF) ΔTmmax: maximal thermal shift
T2 construct: STARD5(6-213); host or cells: E. coli BL21(DE3)
T2 sequence (Q9NSY2 6-213): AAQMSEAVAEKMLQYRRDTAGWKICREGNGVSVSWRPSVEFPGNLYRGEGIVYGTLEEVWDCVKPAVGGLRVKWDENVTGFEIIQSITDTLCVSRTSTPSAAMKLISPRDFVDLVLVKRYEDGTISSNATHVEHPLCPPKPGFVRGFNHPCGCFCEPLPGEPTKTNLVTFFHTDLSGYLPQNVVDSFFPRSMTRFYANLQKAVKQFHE
From the text: as §1, §2, §3, §4, §5, §6, §7, §8

Compound | OSBP (FP) inhibition (OSBP) [%] | STARD5 (DSF) ΔTm (STARD5) [°C] | inhibition at 10 µM (OSBP) [%] | ΔTm at 10 µM (STARD5) [°C] | Kd (STARD5) [µM] | STARD5 (DSF) ΔTmmax (STARD5) [°C]
C[C@]12CC[C@@H](O)C[C@H]1CCc1c2[nH]c2ccc(Cl)cc12 [Compound 10c] | -10.0 | 0.161 | – | – | – | –
C[C@]12CC[C@@H](O)C[C@H]1CCc1c2[nH]c2ccc(F)cc12 [Compound 10d] | -7.0 | 0.145 | – | – | – | –
Cc1ccc2[nH]c3c(c2c1)CC[C@@H]1C[C@H](O)CC[C@]31C [Compound 10e] | – | – | -1.3 | 0.2 | – | –
COc1ccc2[nH]c3c(c2c1)CC[C@@H]1C[C@H](O)CC[C@]31C [Compound 10f] | – | – | -6.7 | 0.159 | – | –
CC12CCC(O)CC1CCc1c2[nH]c2ccc(C(F)(F)F)cc12 (stereo not shown) [Compound 10g] | – | – | -8 | 0.162 | – | –
C[C@]12CC[C@@H](O)C[C@H]1CCc1c2[nH]c2ccc(I)cc12 [Compound 10h] | 18.7 | 0.241 | – | – | – | –
C[C@]12CC[C@@H](O)C[C@H]1CCc1c2[nH]c2c(F)cc(Cl)cc12 [Compound 10i] | – | – | -9.3 | 0.421 | – | –
Cc1cc(C)c2c3c([nH]c2c1)[C@@]1(C)CC[C@@H](O)C[C@H]1CC3 [Compound 10j] | – | – | -16 | -0.163 | – | –
CCOC(=O)c1ccc2[nH]c3c(c2c1)CC[C@@H]1C[C@H](O)CC[C@]31C [Compound 10k] | 2.0 | 0.2 | – | – | – | –
C[C@]12CC[C@@H](O)C[C@H]1CCC(=O)c1ccccc1NC2=O [Compound 11a] | 2.7 | 0.0733 | – | – | – | –
C[C@]12CC[C@@H](O)C[C@H]1CCC(=O)c1cc(Br)ccc1NC2=O [Compound 11b] | – | – | 12 | 0.3 | – | –
Cc1ccc2c(c1)C(=O)CC[C@@H]1C[C@H](O)CC[C@]1(C)C(=O)N2 [Compound 11c] | – | – | 18.7 | -0.119 | – | –
COc1ccc2c(c1)C(=O)CC[C@@H]1C[C@H](O)CC[C@]1(C)C(=O)N2 [Compound 11d] | – | – | -5.3 | 0.0281 | – | –
C[C@]12CC[C@@H](O)C[C@H]1CCC(=O)c1cc(C(F)(F)F)ccc1NC2=O [Compound 11e] | – | – | 15 | 0.115 | – | –
C[C@]12CC[C@@H](O)C[C@H]1CCC(=O)c1cc(Cl)cc(F)c1NC2=O [Compound 11f] | 9.0 | 0.154 | – | – | – | –
Cc1cc(C)c2c(c1)NC(=O)[C@@]1(C)CC[C@@H](O)C[C@H]1CCC2=O [Compound 11g] | – | – | -5.3 | 0.141 | – | –

Compound | OSBP (FP) inhibition (OSBP) [%] | STARD5 (DSF) ΔTm (STARD5) [°C] | inhibition at 10 µM (OSBP) [%] | ΔTm at 10 µM (STARD5) [°C] | Kd (STARD5) [µM] | STARD5 (DSF) ΔTmmax (STARD5) [°C]
Cc1ccc2[nH]c3c(c(=O)c2c1)C[C@@H]1C[C@H](O)CC[C@]31C [Compound 12] | – | – | 2 | 0.169 | – | –
Cc1ccc2c(c1)[C@]1(O)CC[C@@H]3C[C@H](O)CC[C@]3(C)C1=N2 [Compound 14a] | – | – | 17.3 | 0.5 | – | –
COc1ccc2c(c1)[C@]1(O)CC[C@@H]3C[C@H](O)CC[C@]3(C)C1=N2 [Compound 14b] | – | – | 9.3 | 0.049 | – | –
Cc1cc(C)c2c(c1)N=C1[C@@]2(O)CC[C@@H]2C[C@H](O)CC[C@]12C [Compound 14c] | – | – | 2.7 | 0.0425 | – | –
C[C@]12CC[C@@H]3C[C@H]1CC[C@@]21C(=Nc2ccccc21)O3 [Compound 15a] | – | – | 0 | 1.3 | > 100 | –
CC12CCC3CC1CCC21C(=Nc2ccc(Cl)cc21)O3 (stereo not shown) [Compound 15c] | – | – | 3 | 0.56 | – | –
C[C@]12CC[C@@H]3C[C@H]1CC[C@@]21C(=Nc2ccc(F)cc21)O3 [Compound 15d] | – | – | 2.5 | 0.6 | – | –
Cc1ccc2c(c1)[C@@]13CC[C@@H]4C[C@@H](CC[C@@]41C)OC3=N2 [Compound 15e] | – | – | 5 | 0.8 | – | –
COc1ccc2c(c1)[C@@]13CC[C@@H]4C[C@@H](CC[C@@]41C)OC3=N2 [Compound 15f] | – | – | 10 | 0.268 | – | –
C[C@]12CC[C@@H]3C[C@H]1CC[C@@]21C(=Nc2ccc(C(F)(F)F)cc21)O3 [Compound 15g] | – | – | 16 | 0.9 | – | –
CC12CCC3CC1CCC21C(=Nc2c(Br)cc(C(F)(F)F)cc21)O3 (stereo not shown) [Compound 15h] | – | – | 10 | 0.2 | – | –
C[C@]12CC[C@@H]3C[C@H]1CC[C@@]21C(=Nc2c(F)cc(Cl)cc21)O3 [Compound 15i] | – | – | 8.3 | 0.109 | – | –
CC12CCC3CC1CCC21C(=Nc2ccc(NCc4ccccc4)cc21)O3 (stereo not shown) [Compound 19b] | – | – | 23 | 2.2 | 19.3 | 5.3
CCCCCNc1ccc2c(c1)[C@@]13CC[C@@H]4C[C@@H](CC[C@@]41C)OC3=N2 [Compound 19c] | – | – | 18.6 | 1.3 | 20.9 | 4.8
CCCCN(C)c1ccc2c(c1)[C@@]13CC[C@@H]4C[C@@H](CC[C@@]41C)OC3=N2 [Compound 19d] | – | – | 49 | 4.5 | 11.9 | 7.4
CC(C)(C)OC(=O)N1CCN(c2ccc3c(c2)C24CCC5CC(CCC52C)OC4=N3)CC1 (stereo not shown) [Compound 19e] | – | – | 17.2 | 0.7 | > 100 | 1.9

From article PMC11758220, “Identification of a Privileged Scaffold for Inhibition of Sterol Transport Proteins through the Synthesis and Ring Distortion of Diverse, Pseudo-Natural Products” (ACS Central Science, 2025)
